Data: patent US20020061896A1, “Imidazopyrimidine nucleoside analogues with anti-HIV activity” (priority 1999, published 2002)
Structures can show the parent of a compound that is named as a salt. Where two headings read alike, the source gives them in different places.

What was measured:
Format in all cases: cell-based
[1] = Cytotoxicity using T cells
HIV [2] = experiment: Antiviral activity using T cells; conditions: Human immunodeficiency virus 1, T-cell
Description: (§1) HIV-1 infection assays with cell lines.
(§2) Laboratory strains of HIV-1, HIV-2, simian immunodeficiency virus, strains with know resistance to indicated drugs, or a low-passage (clinically derived) isolates are used to infect established cell lines by using a specific multiplicity of infection (MOI) of the virus for 1 hour at 37° C. prior to washing the cells and resuspension in medium containing increasing concentrations of drug (or test compound). At 4 to 6 days post-infection, drug-treated and control wells are analyzed for an HIV-1 induced cytopathic effect and/or for the presence of viral reverse transcriptase (RT) or viral p24 antigen in the culture medium (Buckheit and Swanstrom 1991; Ojwang et al. 1994, 1995a, Rando et al. 1995).

HIV [3] = experiment: HIV infection of PBMCs; conditions: Human immunodeficiency virus 1, PBMC, read-out: HIV IC50 (uM) PBMCs
Description: HIV-1 infection of PBMCs, CBMCs, and PBL.
(§3) Peripheral blood mononuclear cells (PBMCs), Core blood mononuclear cells (CBMCs) and peripheral blood lymphocytes (PBLs) are isolated from the blood of HIV-1 negative and hepatitis B virus-negative (healthy) donors by using the Ficoll-Hypaque density gradient centrifugation technique and are then cultured as described by Gartner and Popovic (1990).
PBMCs or CBMCs (2×10^5 cells/well) were infected with various isolates of HIV-1 at an MOI of 0.01. After 2 hours at 37C the cells are washed and treated with various concentrations of drug or test compound (Buckheit and Swanstrom 1991; Ojwang et al. 1995a). Seven days post-infection, HIV-1 replication was analyzed by the measuring the levels of RT or p24 in the culture medium.

Cytotoxicity in PBMCs = conditions: human
Description: as §3

[4] = Cytotoxicity (table Antiviral Activity & Cytotoxicity); conditions: established cell lines
HIV-1 = experiment: Antiviral activity (HIV-1 infection assays with cell lines); conditions: Human immunodeficiency virus 1
Description: as §1, §2

HIV [5] = experiment: HIV infection assay in cell lines (MT-2, MT-4, Jurkat)
Description: as §1, §2

[6] = Cytotoxicity in MT-2 cells; conditions: human
[7] = peripheral blood mononuclear cells (PBMCs), read-out: CC50 (uM) PBMCs
[8] = antiviral activity, read-out: IC50
[9] = Human immunodeficiency virus 1, MT2, read-out: HIV IC50 (uM) MT-2

Row | Structure (SMILES) | IC50 (HIV [2]) | CC50 [1] | CC50 [4] | further results
1 | O=c1n([C@H]2CC[C@@H](CO)O2)ccc2nc(-c3ccc([N+](=O)[O-])cc3)cn12 [Compound 32, 2-(4- NITROPHENYL)-6-[(2R,5S)-5- HYDROXYMETHYLOXOLAN-2-YL]-5,6- DIHYDRO[1,3]-DIAZOLO[1,2-C][1,3]DIAZIN-5-ONE] | 7 µM | > 100 µM |  | 
2 | CC(C)[C@H](N)C(=O)OCC1OC[C@H](n2ccc3nc(-c4ccc(F)cc4)cn3c2=O)O1 (some centres unmarked) [Compound 60, 2-AMINO-3-METHYL-BUTYRIC ACID 4-[2- (4-FLUORO-PHENYL)-5-OXO-IMIDAZO [1,2-C]PYRIMIDIN-6-YL]-[1,3]DIOXOLAN-2- YLMETHYL ESTER; HYDROCHLORIDE SALT] |  |  |  | IC50 (HIV [3]): 0.6 µM; CC50 (Cytotoxicity in PBMCs): > 10 µM
3 | O=c1n([C@H]2CO[C@@H](CO)O2)ccc2nc(-c3ccccc3)cn12 [Compound 62, 6-(2-HYDROXYMETHYL-[1,3]DIOXOLAN- 4-YL)-2-PHENYL-6H-IMIDAZO[1,2-C]PYRIMIDIN-5-ONE] |  |  |  | IC50 (HIV [3]; PBMCs): 8 µM; CC50 (Cytotoxicity in PBMCs; [7]): > 10 µM
4 | O=c1n([C@H]2CO[C@@H](CO)O2)cc(F)c2nc(-c3ccc(F)cc3)cn12 (stereo in doubt) [Compound 48] | 0.026 µM | > 100 µM | > 100 µM | IC50 (HIV-1; [8]): 0.026 µM
5 | O=c1n([C@@H]2CC[C@H](CO)O2)ccc2nc(-c3ccc([N+](=O)[O-])cc3)cn12 [Compound 31, 6-[(2S,5R)-5-HYDROXYMETHYL OXOLAN-2-YL]-2-(4-NITROPHENYL)-5,6- DIHYDRO[1,3]-DIAZOLO[1,2-C][1,3]DIAZIN-5-ONE] | 9.7 µM | 45 µM |  | 
6 | O=c1n([C@H]2CO[C@@H](CO)O2)ccc2nc(-c3ccc([N+](=O)[O-])cc3)cn12 [Compound 46, 2-(4-NITROPHENYL)-6-[(2R,4R)-2- HYDROXYMETHYL-1,3-DIOXOLAN-4-YL]- 5,6-DIHYDRO[1,3]DIAZOLO[1,2- C][1,3]DIAZIN-5-ONE] | 0.1 µM | > 100 µM | > 100 µM | IC50 (HIV-1; [8]): 0.1 µM
7 | O=c1n([C@H]2CO[C@@H](CO)O2)ccc2nc(-c3ccc(F)cc3)cn12 [Compound 44, 2-(4-FLUOROPHENYL)-6-[(2R,4R)-2- HYDROXYMETHYL-1,3-DIOXOLAN-4-YL]- 5,6-DIHYDRO[1,3]DIAZOLO[1,2- C][1,3]DIAZIN-5-ONE] | 0.0032 µM | > 100 µM | > 100 µM | IC50 (HIV-1; [8]): 0.003 µM
8 | O=c1n([C@H]2CO[C@@H](CO)O2)cc(F)c2nc(-c3ccc([N+](=O)[O-])cc3)cn12 [Compound 50] | 0.44 µM | > 100 µM | > 100 µM | IC50 (HIV [5]; [9]): 2.8 µM; CC50 [6]: > 10 µM; IC50 (HIV-1; [8]): 0.44 µM
9 | O=c1n([C@@H]2CO[C@H](CO)O2)cc(F)c2nc(-c3ccc([N+](=O)[O-])cc3)cn12 [Compound 49] |  |  |  | IC50 (HIV [5]; Human immunodeficiency virus 1, Jurkat, read-out: HIV IC50 (uM) Jurkat): 0.24 µM; IC50 (HIV [5]; [9]): 0.13 µM; IC50 (HIV [5]; Human immunodeficiency virus 1, MT4, read-out: HIV IC50 (uM) (MT-4)): 0.015 µM; CC50 [6]: 6.5 µM; CC50 (Cytotoxicity in PBMCs; [7]): < 10 µM; IC50 (HIV-1): 0.005 µM
10 | O=c1n([C@@H]2CO[C@@H](CO)O2)cc(F)c2nc(-c3ccc([N+](=O)[O-])cc3)cn12 [Compound 58] | 60 µM | > 100 µM | > 100 µM | IC50 (HIV-1): 60 µM

Continued, in another order:

Row | IC50 (HIV [2]) | Structure (SMILES) | CC50 [1] | CC50 [4] | further results
11 | 0.31 µM | O=c1n(C2CO[C@H](CO)O2)ccc2nc(-c3ccc(F)cc3)cn12 (stereo in doubt) [Compound 43, 2-(4-FLUOROPHENYL)-6-[(2S,4S)-2- HYDROXYMETHYL-1,3-DIOXOLAN-4-YL]- 5,6-DIHYDRO[1,3]DIAZOLO[1,2- C][1,3]DIAZIN-5-ONE] | > 100 µM |  | 
12 | 0.4 µM | O=c1n([C@H]2CO[C@H](CO)O2)ccc2nc(-c3ccc([N+](=O)[O-])cc3)cn12 [Compound 53] | > 10 µM |  | 
13 | 0.25 µM | O=c1n([C@@H]2CO[C@H](CO)O2)ccc2nc(-c3ccc([N+](=O)[O-])cc3)cn12 [Compound 45, L2-(4-NITROPHENYL)-6-[(2S,4S)-2- HYDROXYMETHYL-1,3-DIOXOLAN-4-YL]- 5,6-DIHYDRO[1,3]DIAZOLO[1,2- C][1,3]DIAZIN-5-ONE] | 10 µM |  | IC50 (HIV [5]; [9]): 3 µM; CC50 [6]: 2 µM
14 | 1 µM | O=c1n([C@H]2CC[C@@H](CO)O2)cc(F)c2nc(-c3ccc([N+](=O)[O-])cc3)cn12 [Compound 36, 8-FLUORO-2-(4-NITROPHENYL)-6- [(2R,5S)-5-HYDROXYMETHYL OXOLAN- 2-YL]-5,6-DIHYDRO[1,3]-DIAZOLO[1,2- C][1,3]DIAZIN-5-ONE] | > 100 µM |  | 
15 | 48 µM | O=c1n([C@H]2CO[C@H](CO)O2)cc(F)c2nc(-c3ccc(F)cc3)cn12 [Compound 55] | > 100 µM |  | 
16 | 4 µM | O=c1n([C@@H]2CC[C@H](CO)O2)cc(F)c2nc(-c3ccc(F)cc3)cn12 [Compound 33, 8-FLUORO-2-(4-FLUOROPHENYL)-6- [(5R,2S)-5-HYDROXYMETHYL OXOLAN- 2-YL]-5,6-DIHYDRO[1,3]DIAZOLO[1,2- C][1,3]DIAZIN-5-ONE] | 90 µM |  | 
